Results published in publication PMC12155096 (International Journal of Molecular Sciences, 2025).
Where two headings read alike, the source gives them in different places.

Experiments:
CYP3A4 [1] = target: T1, CYP3A4 (Homo sapiens, UniProt P08684); test: biochemical; details: for IC50: CYP3A4 IC50 (half-maximal inhibitory concentration)
human CYP2D6 [2] = target: T2, human CYP2D6 (Homo sapiens, UniProt P10635); test: P450-Glo CYP2D6 inhibition qHTS
human CYP2C9 [3] = target: T3, human CYP2C9 (Homo sapiens, UniProt P11712); test: P450-Glo CYP2C9 inhibition qHTS
T3 sequence (P11712 whole entry): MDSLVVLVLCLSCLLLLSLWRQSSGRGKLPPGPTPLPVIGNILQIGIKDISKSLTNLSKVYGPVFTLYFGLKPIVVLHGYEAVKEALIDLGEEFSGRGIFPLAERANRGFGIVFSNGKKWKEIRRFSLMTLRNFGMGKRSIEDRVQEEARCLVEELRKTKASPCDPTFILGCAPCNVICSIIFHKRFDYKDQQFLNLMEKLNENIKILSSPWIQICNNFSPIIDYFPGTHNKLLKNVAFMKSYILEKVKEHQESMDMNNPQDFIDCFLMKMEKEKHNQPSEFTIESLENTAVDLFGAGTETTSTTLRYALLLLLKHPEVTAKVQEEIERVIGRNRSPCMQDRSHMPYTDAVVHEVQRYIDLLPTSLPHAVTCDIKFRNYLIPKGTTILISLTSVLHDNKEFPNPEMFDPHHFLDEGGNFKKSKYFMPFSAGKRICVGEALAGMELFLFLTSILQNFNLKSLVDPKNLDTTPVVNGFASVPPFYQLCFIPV

human CYP1A2 [4] = target: T4, human CYP1A2 (Homo sapiens, UniProt P05177); test: biochemical
T4 sequence (P05177 1-516): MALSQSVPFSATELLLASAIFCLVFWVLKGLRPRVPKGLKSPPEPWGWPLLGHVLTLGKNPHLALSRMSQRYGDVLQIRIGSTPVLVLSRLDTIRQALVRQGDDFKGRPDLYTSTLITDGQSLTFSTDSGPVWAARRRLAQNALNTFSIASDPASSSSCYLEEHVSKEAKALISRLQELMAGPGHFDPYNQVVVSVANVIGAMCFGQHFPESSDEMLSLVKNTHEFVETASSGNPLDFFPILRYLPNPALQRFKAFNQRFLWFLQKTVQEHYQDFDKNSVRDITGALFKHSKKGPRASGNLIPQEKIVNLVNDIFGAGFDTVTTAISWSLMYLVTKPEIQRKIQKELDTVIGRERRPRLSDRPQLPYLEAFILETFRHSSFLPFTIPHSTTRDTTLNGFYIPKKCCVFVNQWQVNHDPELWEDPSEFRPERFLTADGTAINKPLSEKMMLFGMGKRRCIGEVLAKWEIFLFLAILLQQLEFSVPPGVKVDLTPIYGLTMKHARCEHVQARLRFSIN

human CYP2C19 [5] = target: T5, human CYP2C19 (Homo sapiens, UniProt P33261); details: for CYP2C19 Efficacy (in parenthesis): human
T5 sequence (P33261 whole entry): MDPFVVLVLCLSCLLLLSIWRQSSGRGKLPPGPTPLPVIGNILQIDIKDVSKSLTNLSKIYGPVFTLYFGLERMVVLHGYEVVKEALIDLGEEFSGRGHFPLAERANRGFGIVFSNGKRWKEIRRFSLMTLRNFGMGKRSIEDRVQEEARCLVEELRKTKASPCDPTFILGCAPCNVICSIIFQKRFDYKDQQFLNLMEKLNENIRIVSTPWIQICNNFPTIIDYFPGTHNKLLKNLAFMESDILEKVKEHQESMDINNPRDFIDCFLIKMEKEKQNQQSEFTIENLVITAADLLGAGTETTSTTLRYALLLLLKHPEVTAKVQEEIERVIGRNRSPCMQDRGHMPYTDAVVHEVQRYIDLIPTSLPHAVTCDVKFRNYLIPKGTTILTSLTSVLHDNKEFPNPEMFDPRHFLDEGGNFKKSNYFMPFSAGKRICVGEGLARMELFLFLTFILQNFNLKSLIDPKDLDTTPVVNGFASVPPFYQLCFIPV

human CYP2C19 [6] = target: T5, human CYP2C19; test: biochemical
human CYP2D6 [7] = target: T2, human CYP2D6; test: biochemical
CYP3A4 [8] = target: T1, CYP3A4
human CYP2C9 [9] = target: T3, human CYP2C9; test: biochemical
human CYP1A2 [10] = target: T4, human CYP1A2
[11] = target: Photinus pyralis (firefly) luciferase (Photinus pyralis, UniProt P08659); test: biochemical; assay type: biochemical
Sequence of Photinus pyralis (firefly) luciferase (P08659 whole entry): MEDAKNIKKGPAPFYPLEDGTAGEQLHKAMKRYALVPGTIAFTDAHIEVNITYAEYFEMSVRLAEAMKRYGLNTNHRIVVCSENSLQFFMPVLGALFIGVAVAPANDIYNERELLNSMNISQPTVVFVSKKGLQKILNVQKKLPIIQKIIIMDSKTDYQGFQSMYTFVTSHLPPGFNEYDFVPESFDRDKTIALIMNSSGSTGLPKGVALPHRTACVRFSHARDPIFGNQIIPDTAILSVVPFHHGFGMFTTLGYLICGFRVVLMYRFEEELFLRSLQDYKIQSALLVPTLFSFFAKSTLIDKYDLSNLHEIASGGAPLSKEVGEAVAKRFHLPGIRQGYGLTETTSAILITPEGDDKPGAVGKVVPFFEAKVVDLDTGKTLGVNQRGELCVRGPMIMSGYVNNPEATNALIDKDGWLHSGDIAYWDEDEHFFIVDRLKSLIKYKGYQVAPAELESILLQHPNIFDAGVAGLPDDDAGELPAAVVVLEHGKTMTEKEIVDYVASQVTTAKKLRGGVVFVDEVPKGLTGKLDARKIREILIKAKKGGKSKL

human CYP2C19 [12] = target: T5, human CYP2C19; test: P450-Glo CYP2C19 inhibition qHTS
CYP3A4 [13] = target: T1, CYP3A4; test: in vitro
human CYP2C9 [14] = target: T3, human CYP2C9; details: for CYP2C9 Efficacy (in parenthesis): human
human CYP2D6 [15] = target: T2, human CYP2D6; details: for CYP2D6 Efficacy (in parenthesis): human
[16] = in vivo; cited from earlier work
[17] = CYP2C19 IC50 (half-maximal inhibitory concentration)
[18] = CYP1A2 IC50 (half-maximal inhibitory concentration)
[19] = CYP2D6 IC50 (half-maximal inhibitory concentration)
[20] = CYP2C9 IC50 (half-maximal inhibitory concentration)

T1 sequence (P08684 whole entry): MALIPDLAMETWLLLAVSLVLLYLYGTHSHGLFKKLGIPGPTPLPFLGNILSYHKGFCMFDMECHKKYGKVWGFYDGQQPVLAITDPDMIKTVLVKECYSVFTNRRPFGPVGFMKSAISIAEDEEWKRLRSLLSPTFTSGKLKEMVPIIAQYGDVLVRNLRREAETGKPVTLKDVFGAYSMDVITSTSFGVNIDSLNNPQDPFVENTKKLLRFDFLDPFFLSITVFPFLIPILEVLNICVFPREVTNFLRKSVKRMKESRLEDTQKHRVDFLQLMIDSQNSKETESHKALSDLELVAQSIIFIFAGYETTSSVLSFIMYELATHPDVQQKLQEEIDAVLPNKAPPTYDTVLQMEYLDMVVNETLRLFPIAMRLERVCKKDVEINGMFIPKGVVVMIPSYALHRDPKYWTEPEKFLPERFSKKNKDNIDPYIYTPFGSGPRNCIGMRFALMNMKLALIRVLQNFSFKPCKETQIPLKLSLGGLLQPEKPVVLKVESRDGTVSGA
T2 sequence (P10635 whole entry): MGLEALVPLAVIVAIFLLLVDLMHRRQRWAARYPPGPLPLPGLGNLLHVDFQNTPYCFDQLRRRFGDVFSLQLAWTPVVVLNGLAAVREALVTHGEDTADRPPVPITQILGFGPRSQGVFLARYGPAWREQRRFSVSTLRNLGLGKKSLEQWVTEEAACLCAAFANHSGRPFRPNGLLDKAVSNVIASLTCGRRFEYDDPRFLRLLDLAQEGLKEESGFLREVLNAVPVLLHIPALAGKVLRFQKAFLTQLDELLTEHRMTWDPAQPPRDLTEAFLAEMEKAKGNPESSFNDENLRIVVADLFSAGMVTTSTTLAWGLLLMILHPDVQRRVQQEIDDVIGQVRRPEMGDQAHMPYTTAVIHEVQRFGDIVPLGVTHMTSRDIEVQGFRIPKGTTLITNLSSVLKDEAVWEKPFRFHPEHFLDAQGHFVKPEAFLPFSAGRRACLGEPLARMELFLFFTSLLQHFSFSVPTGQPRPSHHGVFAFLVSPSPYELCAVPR

Row | Compound | Luciferase IC50 (half-maximal inhibitory concentration) [11] | IC50 (human CYP2C19 [6]; [17]) [µM] | IC50 (CYP3A4 [1]) [µM] | CYP3A4 Efficacy (in parenthesis) (CYP3A4 [8]) | CYP2D6 Efficacy (in parenthesis) (human CYP2D6 [15]) | CYP1A2 Efficacy (in parenthesis) (human CYP1A2 [10]; human) | IC50 (human CYP1A2 [4]; [18]) [µM] | CYP2C9 Efficacy (in parenthesis) (human CYP2C9 [14]) | CYP2C19 Efficacy (in parenthesis) (human CYP2C19 [5]) | IC50 (human CYP2D6 [7]; [19]) [µM] | IC50 (human CYP2C9 [9]; [20]) [µM] | further results
1 | CC(C)(c1ccccc1)c1ccccc1 [2,2-Diphenylpropane] | – | – | – | – | – | – | – | – | – | – | – | AC50 (CYP3A4 [1]): 34.4 ± 11.7 µM; CYP2D6 AC50 (half-maximal activity concentration) (human CYP2D6 [2]): Inconclusive inhibitor; CYP2C9 AC50 (half-maximal activity concentration) (human CYP2C9 [3]): Inconclusive inhibitor; AC50 (human CYP1A2 [4]): 58.8 µM; CYP2C19 AC50 (half-maximal activity concentration) (human CYP2C19 [5]): Inactive
2 | CSC(=O)c1cccc2nnsc12 [Acibenzolar-S-methyl] | Inactive | – | – | – | – | – | – | – | – | – | – | IC50 (human CYP2C19 [6]): 13.2 µM; IC50 (human CYP2D6 [7]): 34.3 µM; CYP3A4 IC50 (half-maximal inhibitory concentration) (CYP3A4 [8]): Inactive; CYP2D6 Efficacy (in parenthesis) (human CYP2D6 [2]; human): 34.28 ± 2.23 (-79 ± 6) %; IC50 (human CYP2C9 [9]): 8.65 µM; CYP1A2 Efficacy (in parenthesis) (human CYP1A2 [10]; mean ± standard deviation from three experiments, negative = inhibition): 0.77 ± 0.11 (-94 ± 7) %; CYP2C9 Efficacy (in parenthesis) (human CYP2C9 [3]; human): 8.65 ± 1.19 (-93 ± 9) %; CYP2C19 Efficacy (in parenthesis) (human CYP2C19 [12]; human): 13.25 ± 2.38 (-133 ± 9) %; IC50 (human CYP1A2 [4]): 0.77 µM
3 | C=CCN1C[C@H](C(=O)N(CCCN(C)C)C(=O)NCC)C[C@@H]2c3cccc4[nH]cc(c34)C[C@H]21 [Cabergoline] | – | – | – | – | – | – | – | – | – | – | – | IC50 (human CYP2D6 [7]; CYP2D6 IC50): 1.47 µM; IC50 (CYP3A4 [13]): 1.02 µM; CYP1A2 IC50 (human CYP1A2 [10]): Inactive; Luciferase IC50 [11]: Inactive; CYP2C9 IC50 (human CYP2C9 [14]): Inactive; CYP2C19 IC50 (human CYP2C19 [5]): Inactive
4 | CN(CC1(C)CCCO1)S(=O)(=O)c1ccc(Cl)c(S(N)(=O)=O)c1 (stereo not drawn) [Mefruside] | – | – | – | – | – | – | – | – | – | – | – | AC50 (CYP3A4 [1]): 15.8 ± 3.61 µM; AC50 (human CYP2C9 [9]): 13.3 ± 8.76 µM; CYP2D6 AC50 (half-maximal activity concentration) (human CYP2D6 [15]): Inactive; CYP1A2 AC50 (half-maximal activity concentration) (human CYP1A2 [10]): Inactive; CYP2C19 AC50 (half-maximal activity concentration) (human CYP2C19 [12]): Inconclusive inhibitor
5 | CCOP(=S)(OCC)SCn1c(=O)oc2cc(Cl)ccc21 [Phosalone] | – | 0.13 | 0.3 | 0.3 ± 0.07 (-85 ± 5) % | 15.88 ± 2.02 (-103 ± 4) % | 2.98 ± 0.74 (-99 ± 6) % | 2.98 | 1.21 ± 0.14 (-101 ± 6) % | 0.13 ± 0.05 (-148 ± 13) % | – | – | IC50 (human CYP2D6 [7]): 15.9 µM; IC50 (human CYP2C9 [9]): 1.21 µM; IC50 [11]: 49.6 µM
6 | Clc1ccccc1-c1nc(-c2ccncc2)no1 [Pifexole] | – | 0.74 | 33.6 | 33.57 ± 4.62 (-77 ± 10) % | 20.06 ± 9.42 (-76 ± 17) % | 0.39 ± 0.12 (-91 ± 4) % | 0.39 | 6.98 ± 3.95 (-79 ± 12) % | 0.74 ± 0.41 (-105 ± 12) % | 20.1 | 6.98 | IC50 [11]: 3.23 µM
7 | CCNP(=S)(OC)O/C(C)=C/C(=O)OC(C)C (stereo not drawn) [Propetamphos] | Inactive | 0.08 | 1.05 | 1.05 ± 0.36 (-88 ± 2) % | 28.38 ± 3.26 (-120 ± 4) % | 2.25 ± 0.26 (-99 ± 4) % | 2.25 | 0.57 ± 0.11 (-102 ± 4) % | 0.08 ± 0.01 (-138 ± 6) % | – | – | IC50 (human CYP2D6 [7]): 28.4 µM; IC50 (human CYP2C9 [9]): 0.57 µM
8 | CCCC1COC(Cn2cncn2)(c2ccc(Cl)cc2Cl)O1 (stereo not drawn) [Propiconazole] | Inactive | 0.52 | 0.06 | 0.06 ± 0.02 (-71 ± 3) % | 37.02 ± 2.51 (-73 ± 5) % | 24.72 ± 6.17 (-104 ± 9) % | 24.7 | 2.18 ± 0.37 (-104 ± 6) % | 0.52 ± 0.14 (-134 ± 10) % | 37 | 2.18 | –
9 | COC(=O)N(OC)c1ccccc1COc1ccn(-c2ccc(Cl)cc2)n1 [Pyraclostrobin] | – | 0.57 | – | 1.31 ± 0.09 (52 ± 7) % | 32.63 ± 15.32 (-79 ± 28) % | 0.99 ± 0.24 (-102 ± 3) % | 0.99 | 5.35 ± 1.51 (-104 ± 6) % | 0.57 ± 0.25 (-152 ± 29) % | 32.6 | 5.35 | AC50 (human CYP2C19 [6]; CYP2C19 AC50 (half-maximal activity concentration)): 0.57 µM; AC50 (CYP3A4 [1]; CYP3A4 AC50 (half-maximal activity concentration)): 1.31 µM; AC50 (human CYP2D6 [7]; CYP2D6 AC50 (half-maximal activity concentration)): 32.6 µM; CYP3A4 IC50 (half-maximal inhibitory concentration) (CYP3A4 [8]): 1.31 ± 0.09 (52 ± 7) µM; AC50 (human CYP2C9 [9]; CYP2C9 AC50 (half-maximal activity concentration)): 5.35 µM; IC50 [11]: 56.4 µM; AC50 (human CYP1A2 [4]; CYP1A2 AC50 (half-maximal activity concentration)): 0.99 µM
10 | CCc1c(C(=O)NN2CCCCC2)nn(-c2ccc(Cl)cc2Cl)c1-c1ccc(Br)cc1 [Surinabant] | – | – | – | – | – | – | – | – | – | – | – | AC50 (CYP3A4 [1]): 4.12 ± 1.72 µM; AC50 (human CYP2C9 [9]): 8.32 ± 1.06 µM; CYP2D6 AC50 (half-maximal activity concentration) (human CYP2D6 [15]): Inactive; CYP1A2 AC50 (half-maximal activity concentration) (human CYP1A2 [10]): Inactive; CYP2C19 AC50 (half-maximal activity concentration) (human CYP2C19 [12]): Inconclusive inhibitor
11 | CC(C)(C)C(O)(CCc1ccc(Cl)cc1)Cn1cncn1 (stereo not drawn) [Tebuconazole] | Inactive | 0.45 | 0.21 | 0.21 ± 0.04 (-90 ± 1) % | 34.28 ± 2.23 (-82 ± 7) % | 31.85 ± 3.66 (-77 ± 8) % | 31.9 | 3.3 ± 0.22 (-104 ± 4) % | 0.45 ± 0.0 (-115 ± 9) % | 34.3 | 3.3 | –
12 | FC(F)C(F)(F)OCC(Cn1cncn1)c1ccc(Cl)cc1Cl (stereo not drawn) [Tetraconazole] | Inactive | 0.02 | 0.25 | 0.25 ± 0.06 (-66 ± 2) % | 12.32 ± 3.08 (-113 ± 2) % | 6.09 ± 0.84 (-101 ± 7) % | 6.09 | 1.84 ± 0.12 (-114 ± 7) % | 0.02 ± 0.0 (-134 ± 5) % | 12.3 | 1.84 | –
13 | CCCOC/C(=N\c1ccc(Cl)cc1C(F)(F)F)n1ccnc1 [Triflumizole] | Inactive | 0.36 | 0.21 | 0.21 ± 0.07 (-78 ± 2) % | 34.28 ± 2.23 (-99 ± 9) % | 9.3 ± 0.63 (-102 ± 6) % | 9.3 | 3.92 ± 0.98 (-103 ± 3) % | 0.36 ± 0.3 (-125 ± 6) % | 34.3 | 3.92 | –
14 | COC(=O)[C@@H]1[C@H]2C[C@H]3c4[nH]c5ccccc5c4CCN3C[C@@H]2CC[C@@H]1O [Yohimbine, reference compound] | Inactive | – | – | – | – | – | – | – | – | – | – | Cmax (maximum plasma concentration) [16]: 75 ng/mL
